Key:
[1] = Oral bioavailability in rat (dose 2 mg/kg); format: ADME, organism-based; settings: in vivo
[2] = Plasma clearance was determined in rat after intravenous administration (0.5 mg/kg); format: ADME, organism-based; settings: read-out: Clp
Rattus norvegicus = assay: Dose-normalized AUC was determined in rat after peroral administration (2 mg/kg); format: ADME, organism-based; settings: in vivo, po
[3] = In vivo glucose correction was determined in male db/db mice after administration at 10 mg/kg; format: functional, Mus musculus
[4] = In vivo triglyceride correction was determined in male db/db mice after administration at 10 mg/kg; format: functional, Mus musculus
[5] = target: T1, Peroxisome proliferator-activated receptor alpha (Homo sapiens, UniProt Q07869); assay: In vitro agonist activity tested for transactivation in human PPAR alpha-Gal4 chimeric COS-1 cells; format: functional, cell-based
T1 sequence (Q07869 whole entry): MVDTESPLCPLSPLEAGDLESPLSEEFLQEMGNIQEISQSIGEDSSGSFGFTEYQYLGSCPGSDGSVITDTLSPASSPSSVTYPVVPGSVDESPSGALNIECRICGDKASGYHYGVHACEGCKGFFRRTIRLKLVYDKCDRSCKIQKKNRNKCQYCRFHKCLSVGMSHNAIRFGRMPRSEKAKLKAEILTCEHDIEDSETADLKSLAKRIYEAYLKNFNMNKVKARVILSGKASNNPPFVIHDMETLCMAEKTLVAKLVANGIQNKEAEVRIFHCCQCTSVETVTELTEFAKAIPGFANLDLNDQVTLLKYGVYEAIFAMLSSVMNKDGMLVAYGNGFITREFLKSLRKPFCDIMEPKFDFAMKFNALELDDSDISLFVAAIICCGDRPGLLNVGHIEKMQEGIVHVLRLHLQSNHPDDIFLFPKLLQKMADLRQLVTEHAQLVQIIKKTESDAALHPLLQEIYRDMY

[6] = Half-life was determined in rat after intravenous administration (0.5 mg/kg); format: ADME, organism-based; settings: in vivo
[7] = target: T2, Peroxisome proliferator-activated receptor gamma (Homo sapiens, UniProt P37231)
T2 sequence (P37231 whole entry): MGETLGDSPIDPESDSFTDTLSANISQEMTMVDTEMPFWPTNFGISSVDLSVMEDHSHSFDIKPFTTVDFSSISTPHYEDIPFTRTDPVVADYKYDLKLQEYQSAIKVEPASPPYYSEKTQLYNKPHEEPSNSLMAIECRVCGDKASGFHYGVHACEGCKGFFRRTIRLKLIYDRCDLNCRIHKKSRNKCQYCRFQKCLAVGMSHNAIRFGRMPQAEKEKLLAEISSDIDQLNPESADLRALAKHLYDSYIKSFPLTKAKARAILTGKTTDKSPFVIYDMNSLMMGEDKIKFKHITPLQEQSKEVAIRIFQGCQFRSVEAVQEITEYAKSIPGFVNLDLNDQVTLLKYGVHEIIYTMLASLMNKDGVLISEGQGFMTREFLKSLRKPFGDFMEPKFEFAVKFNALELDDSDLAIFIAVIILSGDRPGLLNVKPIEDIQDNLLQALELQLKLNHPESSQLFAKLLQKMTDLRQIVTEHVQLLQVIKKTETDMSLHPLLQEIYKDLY
Description: In vitro agonist activity tested for transactivation in human PPAR gamma-Gal4 chimeric COS-1 cells

[8] = target: T3, Peroxisome proliferator-activated receptor delta (Homo sapiens, UniProt Q03181)
T3 sequence (Q03181 whole entry): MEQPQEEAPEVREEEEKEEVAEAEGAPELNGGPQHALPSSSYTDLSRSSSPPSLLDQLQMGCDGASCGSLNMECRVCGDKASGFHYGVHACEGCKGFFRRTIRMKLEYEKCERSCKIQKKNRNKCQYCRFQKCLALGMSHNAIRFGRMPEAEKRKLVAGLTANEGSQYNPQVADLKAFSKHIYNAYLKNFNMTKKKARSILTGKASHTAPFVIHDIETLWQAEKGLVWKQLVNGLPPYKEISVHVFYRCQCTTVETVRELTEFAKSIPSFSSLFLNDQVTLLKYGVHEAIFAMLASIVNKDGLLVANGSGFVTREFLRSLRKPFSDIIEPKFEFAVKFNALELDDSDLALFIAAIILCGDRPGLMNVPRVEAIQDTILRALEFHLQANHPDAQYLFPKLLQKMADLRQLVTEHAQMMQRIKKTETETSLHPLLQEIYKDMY
Description: In vitro agonist activity tested for transactivation in human PPAR delta-GAL4 chimeric COS-1 cells

[9] = target: T3, Peroxisome proliferator-activated receptor delta; remark: listed apart in the source
Description: In vitro binding affinity against human PPAR delta (peroxisome proliferator-activated delta receptor)

[10] = target: T2, Peroxisome proliferator-activated receptor gamma; remark: listed apart in the source
Description: In vitro binding affinity against human PPAR gamma (peroxisome proliferator-activated gamma receptor)

[11] = target: T1, Peroxisome proliferator-activated receptor alpha; assay: In vitro binding affinity against human PPAR alpha (peroxisome proliferator-activated alpha receptor)
Mus musculus [12] = assay: In vivo glucose correction was determined in male db/db mice after administration at 5 mg/kg; format: functional
Mus musculus [13] = assay: In vivo triglyceride correction was determined in male db/db mice after administration at 5 mg/kg; format: functional

SMILES	bioavailability [1]	clearance [2]	AUC (Rattus norvegicus)	Glucose correction [3]	Triglyceride correction [4]	EC50 [5]	half-life [6]	EC50 [7]	EC50 [8]	IC50 [9]	IC50 [10]	IC50 [11]	Glucose correction (Mus musculus [12])	Triglyceride correction (Mus musculus [13])
CCCc1cc(Oc2ccccc2)ccc1OCCCOc1ccc(C2SC(=O)NC2=O)cc1F (configuration not stated)	63%	2.9 mL/min/kg	7.43 µM·h	43%	50%	> 3 µM	1.7 h	0.3 µM	> 3 µM	2 µM				
CCCc1cc(Oc2ccc(C(F)(F)F)cc2)ccc1OCCCOc1ccc(C2SC(=O)NC2=O)cc1 (configuration not stated)										> 50 µM	1.8 µM	> 50 µM		
CCCc1cc(Oc2ccccc2)ccc1OCCCOc1ccc(C2SC(=O)NC2=O)cc1 (configuration not stated)	89%	2.3 mL/min/kg	13.8 µM·h	77%	74%	> 3 µM	2.3 h		> 3 µM	> 10 µM		50 µM		
CCCc1cc(Oc2ccc(NS(=O)(=O)c3ccc(C)cc3)cc2)ccc1OCCCOc1ccc(C2SC(=O)NC2=O)cc1 (configuration not stated)						> 3 µM		0.5 µM	> 3 µM	> 50 µM	5.7 µM	> 50 µM		
CCCc1cc(Oc2ccc(-c3ccccc3)cc2)ccc1OCCCOc1ccc(C2SC(=O)NC2=O)cc1 (configuration not stated)	6%	2.8 mL/min/kg	0.7 µM·h			> 3 µM	2.2 h	0.02 µM	> 3 µM	> 50 µM	0.13 µM	> 50 µM		
CC(C)Cc1cc(Oc2ccccc2)ccc1OCCCOc1ccc(C2SC(=O)NC2=O)cc1 (configuration not stated)										0.16 µM		0.34 µM		
CCCc1cc(Oc2ccc(F)cc2)ccc1OCCCOc1ccc(C2SC(=O)NC2=O)cc1 (configuration not stated)	63%	3.6 mL/min/kg	5.97 µM·h	78%	71%	> 50 µM	2.1 h		> 50 µM	> 50 µM		> 50 µM		
CCCc1cc(Oc2ccc(NS(C)(=O)=O)cc2)ccc1OCCCOc1ccc(C2SC(=O)NC2=O)cc1 (configuration not stated)										> 50 µM	2 µM	> 50 µM		
O=C1NC(=O)C(c2ccc(OCCCOc3ccc(Oc4ccccc4)cc3)cc2)S1 (configuration not stated)										> 50 µM	> 15 µM	> 50 µM		
CCCc1cc(Oc2ccc(Cl)cc2)ccc1OCCCOc1ccc(C2SC(=O)NC2=O)cc1 (configuration not stated)	58%	2.9 mL/min/kg	6.7 µM·h	86%	80%	3 µM	5.4 h	0.08 µM	> 3 µM	> 50 µM	2 µM	> 50 µM		
CCCc1cc(Oc2ccccc2)ccc1OCCCOc1ccc(C2SC(=O)NC2=O)cc1CCC (configuration not stated)						> 3 µM		0.2 µM	3 µM	1 µM	0.12 µM	> 50 µM		
CCCc1cc(Oc2ccccc2)ccc1OCCCCOc1ccc(C2SC(=O)NC2=O)cc1 (configuration not stated)						> 3 µM			> 3 µM	> 10 µM	3 µM	> 50 µM		
CCCc1cc(Oc2ccccc2)ccc1OCCCOc1ccc(C2SC(=O)NC2=O)cc1C (configuration not stated)						> 3 µM		0.1 µM	> 3 µM	6 µM	6.7 µM	> 50 µM		
CN(CCOc1ccc(CC2SC(=O)NC2=O)cc1)c1ccccn1 (configuration not stated) [ROSIGLITAZONE]	85%	2.7 mL/min/kg	16.4 µM·h				1.2 h						46%	52%
CCCc1cc(Oc2ccc(OC)cc2)ccc1OCCCOc1ccc(C2SC(=O)NC2=O)cc1 (configuration not stated)	39%	1.1 mL/min/kg	11.7 µM·h	67%	67%	> 10 µM	2.8 h		> 3 µM	> 50 µM	0.46 µM	> 50 µM		
CCCc1cc(Oc2ccc(CC(C)C)cc2)ccc1OCCCOc1ccc(C2SC(=O)NC2=O)cc1 (configuration not stated)						> 3 µM		0.03 µM	> 3 µM	> 50 µM	0.13 µM	> 50 µM		
CCCc1cc(Oc2ccccc2)ccc1OCCCOc1ccc(C2SC(=O)NC2=O)cc1Cl (configuration not stated)						> 3 µM		0.7 µM	> 3 µM	0.88 µM	0.43 µM	> 50 µM		
CCCc1cc(Oc2ccccc2)ccc1OCCCOc1ccc(C2SC(=O)NC2=O)cc1OC (configuration not stated)						> 3 µM		0.4 µM	> 3 µM	> 10 µM	1 µM	> 50 µM		
CCCc1cc(Oc2ccc(C)cc2)ccc1OCCCOc1ccc(C2SC(=O)NC2=O)cc1 (configuration not stated)										> 50 µM	2.6 µM	> 50 µM		
CCCc1cc(Oc2ccc(C3CCCC3)cc2)ccc1OCCCOc1ccc(C2SC(=O)NC2=O)cc1 (configuration not stated)										> 50 µM	0.18 µM	> 50 µM		

Reference: ChEMBL document CHEMBL1136397, “5-Aryl thiazolidine-2,4-diones as selective PPARgamma agonists” (Bioorg Med Chem Lett, 2003)
